“Also recorded” adds a separate entry of the source. Read-outs that look alike come from different tables or passages of the source. Ends that are not written are not given here.
Experiments:
HLA-DR2 = test: Competition binding of MBP82–98 analogues to HLA-DR2 (AMCA-labeled MBP83–99 competitor); parameters: species or system human; settings: 37 °C; for binding affinity to HLA-DR2 (competition), in words: triplicates
HLA-DR4 = test: Competition binding of MBP82–98 analogues to HLA-DR4 (AMCA-labeled HA306–318 competitor); parameters: species or system human; settings: 37 °C; for binding to HLA-DR4, overall statement: competition with AMCA-labeled HA306–318, 48 h, pH 6.0
autoreactive T cells = settings: intravenous injections, preclinical and clinical studies; ref [15]; cited from earlier work
Source text: Dirucotide is licensed to BioMS Medical Corp and shared the development with Eli Lilly and Company. […] Thus, in the populat ...

patients with MS = settings: ref [16], cited from earlier work
Source text: (§1) Dirucotide is licensed to BioMS Medical Corp and shared the development with Eli Lilly and Company. […] As a result, further planned/scheduled clinical trials were terminated. […] It is likely that ...

[1] = system: patients with relapsing remitting MS and secondary progressive MS; settings: phase III, cited from earlier work
Source text: as §1

[2] = system: CD4^+CD25^+Foxp3^+ regulatory T cells; settings: ref [18], cited from earlier work
Source text: as §1

[3] = system: experimental autoimmune encephalomyelitis (EAE); settings: compared to linear PLP139–151 peptide; ref [30]; cited from earlier work
Source text: The cyclization of peptides is of great interest, since the partial stability of linear peptides restricts them as potential therapeutics. We have extensively studied cyclic peptides for their enhanced stability and their potential to be used as immunotherapeutics in MS due to their altered three-dimensional conformation. […] Similarly, cyclization of the agonist proteolipid protein (PLP139–151) epit ...

[4] = phase II, HLA-DR2 and HLA-DR4 patients with MS

DENPVVHFFA^91NIVTPRT [linear MBP82–98 (Ala^91), linear altered peptide ligand of dirucotide, K91 mutated to Ala]
binding affinity to HLA-DR2 (competition), in words (HLA-DR2; 10-fold and 20-fold excess, AMCA-labeled MBP83–99, 48 h, pH 6.0, HPSEC fluorescence, relative to linear agonist MBP82–98): bound with much lower affinity
binding affinity to HLA-DR2 (competition), in words (HLA-DR2; 50-fold excess, AMCA-labeled MBP83–99, 48 h, pH 6.0, HPSEC fluorescence): comparable to linear agonist MBP82–98 peptide at 50-fold excess
binding to HLA-DR4, overall statement (HLA-DR4): considerable higher affinity than cyclic MBP82–98

DENPVVHFFK^91NIVTPRT [dirucotide, 17-mer linear peptide MBP82–98]
suppression of autoreactive T cells (autoreactive T cells): suppress autoreactive T cells
T cell responses against MBP82–98 epitope (patients with MS; injected in high concentrations in patients with MS): suppressed T cell responses against MBP82–98 epitope
safety (patients with MS; [4]): safe
time to disease progression (patients with MS; [4]): prolonged the median time to disease progression
time to disease progression (patients with MS; phase II, HLA-DR2 and HLA-DR4 patients with MS, listed as Dirucotide): delayed disease progression
benefit versus placebo ([1]; 612 subjects, ref [17]): did not provide any benefit compared to placebo
primary and secondary endpoints ([1]; 612 subjects, ref [17]): no enhanced primary and secondary endpoints achieved
benefit versus placebo ([1]; relapsing remitting MS and secondary progressive MS, ref [17],[18]): no added benefit was noted compared to the placebo group
induction of CD4+CD25+Foxp3+ regulatory T cells ([2]; following injection in patients with MS): induce CD4^+CD25^+Foxp3^+ regulatory T cells
number of CD4+CD25+Foxp3+ regulatory T cells ([2]; six weeks and six months after treatment): increase in the number of CD4^+CD25^+Foxp3^+ regulatory T cells

cyclic PLP139–151: cyclized agonist proteolipid protein (PLP139–151) epitope (CHCLGKWLGHPDK; also: cyclized; UniProt P60202 139-151, looked up, fragment)
disease burden and pathology [3]: low disease burden, and minimal inflammatory, demyelinating, and axonopathic pathology compared to the linear PLP139–151 peptide

cycloDENPVVHFFK^91NIVTPRT (head to tail) [cyclic MBP82–98, head to tail cyclized dirucotide]
binding affinity to HLA-DR2 (competition), in words (HLA-DR2; 10-fold, 20-fold and 50-fold excess over AMCA-labeled MBP83–99 (1 μM), 48 h, 150 mM sodium phosphate pH 6.0, 15% acetonitrile, 0.1% Zwittergent-12, HPSEC fluorescence 350/450 nm): reduced affinity compared to its linear counterpart at 10-fold, 20-fold and 50-fold excess, but still with comparable affinity
binding to HLA-DR2, overall statement (HLA-DR2; overall, competition with AMCA-labeled MBP83–99, 48 h, pH 6.0): strong binder with the HLA-DR2 allele; also recorded: binds to HLA-DR2 and HLA-DR4 alleles with considerable affinity; also recorded: higher affinity than MBP82–98 (A^91)
binding affinity to HLA-DR4 (competition), in words (HLA-DR4; 10-fold, 20-fold, 50-fold excess over AMCA-labeled HA306–318 (1 μM), 48 h, 150 mM sodium phosphate pH 6.0, 15% acetonitrile, 0.1% Zwittergent-12, HPSEC fluorescence 350/450 nm, triplicates): considerably lower compared to its linear counterpart and linear APL MBP82–98 (Ala^91)
binding to HLA-DR4, overall statement (HLA-DR4): lower affinity binding to the HLA-DR4 allele; also recorded: binds to HLA-DR2 and HLA-DR4 alleles with considerable affinity
